System: hyperuricemia model mice
Experiment: Uric acid lowering ability in hyperuricemia model mice (xanthine + oteracil potassium)
Format: in vivo
Conditions: positive group 50 mg/kg by gavage, seven days, mouse serum
Method: Sixty male mice are randomly divided into six groups after one week's feeding, with 10 mice in each group, including a blank group, a model group, a high P1 dose group (400 mg/kg), a middle P1 dose group (200 mg/kg), a low P1 dose group (100 mg/kg) and a positive drug (50 mg/kg) control group. Every morning, the model group, the positive control group and the high, middle and low P1 dose groups are administered with 600 mg/kg of xanthine (ig) by gavage+100 mg/kg of oteracil potassium (ip) by intraperitoneal injection, fasting but water available for one hour before the model is made, and the blank group is administered with the same dose of normal saline. In the afternoon, the high, middle and low P1 dose groups are administered with the polysaccharide suspension by gavage; the positive control group is administered with 50 mg/kg of allopurinol suspension by gavage; the model group and the blank group are administered with the same volume of normal saline by gavage for seven consecutive days.
On the seventh day, 1 hour after administration in the afternoon, the mice are weighed and decapitated for blood collection. The blood is centrifuged at 3000 r/min for 10 min after being placed at room temperature for 40 min, and the upper layer of the serum is pipetted. Serum uric acid (UA), serum creatinine (CREA) and serum urea nitrogen (BUN) values are measured by kits to investigate the effects of the polysaccharide P1 on UA, CREA and BUN, as well as renal functions in the hyperuricemia model mice.

Oc1ncnc2[nH]ncc12 [Positive, allopurinol]
BUN (serum urea nitrogen): 6.99 ± 1.10 mmol/L | CREA (serum creatinine): 71.69 ± 8.43 µmol/L | UA (serum uric acid): 108.83 ± 6.53 µmol/L
